Molecules are shown by their SMILES.

In the first test the test system is fungal mycelium. Description: organism not typed. It is filed as cell-based. Particulars: read-out: % growth inhibition.
Consider `O=C1CCC(c2ccc(Cl)cc2)=NN1CC=C(Br)CBr` [Compound 75], for which the inhibition at 100 ppm came to 100%. For `CCC#CCN1N=C(c2ccccc2)COC1=O` [Compound 164], the inhibition at 100 ppm is 14.2%. For the compound `CCC#CCN1N=C(c2cccc(F)c2)CCC1=O` [Compound 214, 6-(3-fluorophenyl)-2-(2'-pentynyl)-4,5-dihydropyridazinone], the inhibition at 50 ppm amounted to 100%. `CCC#CCN1N=C(c2ccc(C#N)cc2)CCC1=O` [Compound 64]: the inhibition at 25 ppm is 100%. `CCCCCC#CCN1N=C(c2ccc(Cl)cc2)CCC1=O` [Compound 96]: the inhibition at 10 ppm came to 94.5%. On to `CCC#CCN1N=C(c2ccc(OCC)cc2)CCC1=O` [Compound 66], for which the inhibition at 25 ppm was determined as 100%.

`CCCCCCCC#CCN1N=C(c2ccc(Cl)cc2)CCC1=O` [Compound 85]: the inhibition at 100 ppm came to 100%. Take `CCC#CCN1N=C(c2ccc(Cl)c(F)c2)CCC1=O` [Compound 74, 6-(4-chloro-3-fluorophenyl)-2-(2'-pentynyl)-4,5-dihydropyridazinone]: the inhibition at 1 ppm was found to be 100%. Turning to `CC(=O)CC(C)=NNC(=O)CN1N=C(c2ccc(Cl)cc2)CCC1=O` [Compound 234, 6-(4-chlorophenyl)-2-[N-acetylhydrazide-(N'-2,4-pentanedione-hydrazone)]-4,5-dihydropyridazinone], the inhibition at 100 ppm stood at 42%. `CCC#CCN1N=C(c2ccc3c(c2)CCc2ccccc2-3)CCC1=O` [Compound 227, 6-(9,10-dihydro-2-phenanthrene)-2-(2'-pentynyl)-4,5-dihydropyridazinone]: the inhibition at 10 ppm is 30%.

Turning to `O=C1CCC(c2ccc(Cl)cc2)=NN1Cc1nn(CC#CI)c(=O)o1` [Compound 241], the inhibition at 100 ppm was found to be 100%. As for `CCC#CCN1N=C(c2cccc(C(F)(F)F)c2)CCC1=O` [Compound 213, 6-(3-trifluoromethylphenyl)-2-(2'-pentynyl)-4,5-dihydropyridazinone], the inhibition at 50 ppm came to 100%. In the case of `CCC#CCN1N=C(c2csc3ccccc23)CCC1=O` [Compound 235, 6-(3-thianaphthene)-2-(2'-pentynyl)-4,5-dihydropyridazinone], the inhibition at 100 ppm was 100%. Turning to `CN1N=C(c2ccc(Cl)cc2)CCC1=O` [Compound 201, 6-(4-chlorophenyl)-2-methyl-4,5-dihydropyridazinone], the inhibition at 10 ppm amounted to 10%.

For the compound `CCC#CCN1N=C(c2cccc([N+](=O)[O-])c2)CCC1=O` [Compound 218, 6-(3-nitrophenyl)-2-(2'-pentynyl)-4,5-dihydropyridazinone], the inhibition at 50 ppm was found to be 100%. Regarding `CCC#CCN1N=C(c2ccccc2F)CCC1=O` [Compound 209, 6-(2-fluorophenyl)-2-(2'-pentynyl)-4,5-dihydropyridazinone], the inhibition at 50 ppm is 85.7%. Still for that read-out and setting: then `CCC#CCN1N=C(c2ccccc2Cl)CCC1=O` [Compound 211, 6-(2-chlorophenyl)-2-(2'-pentynyl)-4,5-dihydropyridazinone], with 30%; and `CCC#CCN1N=C(c2ccc(F)c(F)c2)CCC1=O` [Compound 224, 6-(3,4-difluorophenyl)-2-(2'-pentynyl)-4,5-dihydropyridazinone], with 100%. In the case of `CCC#CCn1nc(-c2csc3ccccc23)ccc1=O` [Compound 236, 6-(3-thianaphthene)-2-(2'-pentynyl)-pyridazinone], the inhibition at 100 ppm came out at 100%. For the compound `CCC#CCN1N=C(c2ccc3c(c2)OCO3)CCC1=O` [Compound 207, 6-(3,4-methylenedioxyphenyl)-2-(2'-pentynyl)-4,5-dihydropyridazinone], the inhibition at 1 ppm turned out to be 100%.

As for `CC#CCN1N=C(c2ccc(Cl)cc2)COC1=O` [Compound 163], the inhibition at 10 ppm was determined as 12.7%. As to `CCC#CCN1N=C(c2cccc(C)c2)CCC1=O` [Compound 215, 6-(3-methylphenyl)-2-(2'-pentynyl)-4,5-dihydropyridazinone], the inhibition at 50 ppm was 100%. Take `CCC#CCN1N=C(c2cccc(OC)c2)CCC1=O` [Compound 219, 6-(3-methoxyphenyl)-2-(2'-pentynyl)-4,5-dihydropyridazinone]: the inhibition at 50 ppm stood at 100%.

For the compound `CCC#CCn1nc(-c2cc(F)cc(F)c2)ccc1=O` [Compound 126], the inhibition at 10 ppm was determined as 100%. With `Cc1ccc(Cn2nc(-c3ccc(Cl)cc3)ccc2=O)o1` [Compound 204, 6-(4-chlorophenyl)-2-(5-methyl-2-furanylmethylene)-pyridazinone], the inhibition at 10 ppm amounted to 100%. As for `NNC(=O)CN1N=C(c2ccc(Cl)cc2)CCC1=O` [Compound 233, 6-(4-chlorophenyl)-2-(acetyl hydrazide)4,5-dihydropyridazinone], the inhibition at 100 ppm amounted to 21%. For the compound `CCC#CCN1N=C(c2cccc(Cl)c2)CCC1=O` [Compound 216, 6-(3-chlorophenyl)-2-(2'-pentynyl)-4,5-dihydropyridazinone], the inhibition at 50 ppm amounted to 100%. As for `CCC#CCC1CC(c2ccc(Cl)cc2)=NN(C)C1=O` (stereo not shown) [Compound 203, 6-(4-chlorophenyl)-4-(2'-pentynyl)-2-methyl-4,5-dihydropyridazinone], the inhibition at 10 ppm was 100%. Consider `CCC#CC(C)N1N=C(c2ccc(Cl)cc2)CCC1=O` (stereo not shown) [Compound 208, 6-(4-chlorophenyl)-2-(1-methyl-2-pentynyl)-4,5-dihydropyridazinone], for which the inhibition at 1 ppm worked out at 28.6%.

In the case of `Cc1noc(C)c1CN1N=C(c2ccc(Cl)cc2)CCC1=O` [Compound 231, 6-(4-chlorophenyl)-2-(3,5-dimethyl-4-isoxolylmethyl)-4,5-dihydropyridazinone], the inhibition at 10 ppm came out at 36%.

As for `CCC#CCn1nc(CN2N=C(c3ccc(Cl)cc3)CCC2=O)oc1=O` [Compound 239], the inhibition at 100 ppm amounted to 100%. For `CCC#CCn1nc(-c2ccccc2)c(-c2ccccc2)c(C#N)c1=O` [Compound 228, 5,6-diphenyl-4-cyano-2-(2'-pentynyl)-pyridazinone], the inhibition at 10 ppm came out at 50%. For the compound `CCC#CCN1N=C(c2ccc(OC)c(C)c2)CCC1=O` [Compound 226], the inhibition at 50 ppm was 100%.

Consider `CCC#CCN1N=C(C=Cc2ccc(Cl)cc2)CCC1=O` [Compound 205, 6-(4-chlorostyryl)-2-(2'-pentynyl)-4,5-dihydropyridazinone], for which the inhibition at 10 ppm is 100%. The same measure, in the same setting: then `CCC#CCN1N=C(c2ccc(Cl)cc2)COC1=O` [Compound 162, 2-(4-chlorophenyl)-3-(2-pentyn-1-yl)-3H, 6H-1,3,4-oxadiazin-2-one], with 96.9%. As for `O=C(CN1N=C(c2ccc(Cl)cc2)CCC1=O)NN=Cc1cc(Cl)cc(Cl)c1O` [Compound 240, 6-(4-chlorophenyl)-2-[N-acetylhydrazide-(N'-3,5-dichloro-2-hydroxy-phenylhydrazone)]-4,5-dihydropyridazinone], the inhibition at 100 ppm turned out to be 14%. Same read-out and setting: the figure for `CCC#CCN1N=C(c2ccc(Cl)cc2)CSC1=O` [Compound 165, 5-(4-chlorophenyl)-3-(2-pentyn-1-yl)-3H,6H-1,3,4-thiadiazin-2-one] is 100%. On to `CCC#CCN1N=C(c2ccc(Br)c(F)c2)CCC1=O` [Compound 97], for which the inhibition at 1 ppm was 100%.

For `CCC#CCN1N=C(c2cc(F)cc(F)c2)CCC1=O` [Compound 98], the inhibition at 10 ppm was found to be 40%. As to `CCC#CCN1N=C(c2cnc3ccccc3n2)CCC1=O` [Compound 230, 6-(2-quinoxaline)-2-(2'-pentynyl)-4,5-dihydropyridazinone], the inhibition at 10 ppm came out at 30%. Take `CCC#CCN1N=C(c2cccc(C#N)c2)CCC1=O` [Compound 217, 6-(3-cyanophenyl)-2-(2'-pentynyl)-4,5-dihydropyridazinone]: the inhibition at 50 ppm was 100%. Turning to `CCC#CCn1nc2c(cc1=O)-c1cccc3cccc-2c13` [Compound 232, 8-(2'-pentynyl)-acenaphtho[1,2c]pyridazin-9-one], the inhibition at 5 ppm amounted to 45.5%. Consider `CCC#CCN1N=C(c2ccc(C)c(OC)c2)CCC1=O` [Compound 220, 6-(3-methoxy-4-methylphenyl)-2-(2'-pentynyl)-4,5-dihydropyridazinone], for which the inhibition at 50 ppm turned out to be 100%. As for `CCC#CCN1N=C(CCc2ccc(Cl)cc2)CCC1=O` [Compound 206, 6-(4-chlorophenethyl)-2-(2'-pentynyl)-4,5-dihydropyridazinone], the inhibition at 1 ppm is 14.3%. As to `CCC#CCN1N=C(c2ccccc2C)CCC1=O` [Compound 210, 6-(2-methylphenyl)-2-(2'-pentynyl)-4,5-dihydropyridazinone], the inhibition at 50 ppm turned out to be 35%. Take `CCC#CCN1N=C2c3ccc(Cl)cc3CCC2CC1=O` (stereo not shown) [Compound 200, 4,4a,5,6-tetrahydro-8-chloro[h]-cinnolin-2-(2'-pentynyl)-3-one]: the inhibition at 10 ppm came to 100%. For the compound `CCC#CCN1N=C(c2ccccc2OC)CCC1=O` [Compound 212, 6-(2-methoxyphenyl)-2-(2'-pentynyl)-4,5-dihydropyridazinone], the inhibition at 50 ppm worked out at 35%. On to `O=C1CCC(c2ccc(Cl)cc2)=NN1Cc1n[nH]c(=O)o1` [Compound 238], for which the inhibition at 100 ppm came to 31.6%.

On to `CCC#CCn1nc2c(cc1=O)CCc1cc(Cl)ccc1-2` [Compound 202, 5 6-dihydro-8-chlorobenzo[h]cinnolin-3-(2'-pentynyl)-one], for which the inhibition at 10 ppm turned out to be 100%. For `Cc1cc(C)n(C(=O)CN2N=C(c3ccc(Cl)cc3)CCC2=O)n1` [Compound 237, 6-(4-chlorophenyl)-2-(3,5-dimethyl-1-pyrazoylmethylene)-4,5-dihydropyridazinone], the inhibition at 100 ppm was determined as 58%. Turning to `CCC#CCN1N=C(c2ccc(C)c(F)c2)CCC1=O` [Compound 225, 6-(3-fluoro-4-methylphenyl)-2-(2'-pentynyl)-4,5-dihydropyridazinone], the inhibition at 50 ppm is 100%.

Another test deals with Magnaporthe grisea (Pyricularia oryzae). Briefly: whole plant or invertebrate. It is filed as in vivo, Magnaporthe grisea (Pyricularia oryzae) on M201 rice plants. Particulars: Pyricularia oryzae, 144 h, read-out: % Control RB.
Turning to `O=C1CCC(c2ccc(Cl)cc2)=NN1CC=C(Br)CBr` [Compound 75], the pest or weed control at 200 ppm is 0%.

On to `CCC#CCN1N=C(c2ccc(C#N)cc2)CCC1=O` [Compound 64], for which the pest or weed control at 200 ppm amounted to 0%. `CCCCCC#CCN1N=C(c2ccc(Cl)cc2)CCC1=O` [Compound 96]: the pest or weed control at 200 ppm came to 0%. The same measure, in the same setting: the figure for `CCC#CCN1N=C(c2ccc(OCC)cc2)CCC1=O` [Compound 66] is 0%; for `CCCCCCCC#CCN1N=C(c2ccc(Cl)cc2)CCC1=O` [Compound 85] it is 0%. On to `CCC#CCN1N=C(c2ccc(Cl)c(F)c2)CCC1=O` [Compound 74, 6-(4-chloro-3-fluorophenyl)-2-(2'-pentynyl)-4,5-dihydropyridazinone], for which the pest or weed control at 200 ppm was 75%.

On to `CC#CCN1N=C(c2ccc3ccccc3c2)CCC1=O` [Compound 135], for which the pest or weed control at 200 ppm is 0%.

For orientation: inhibition means the share of the control response that was lost under treatment.

The values are drawn from patent US5726162A (priority 1996, dated 1998).
